The structures appear in SMILES notation.

By IC50 is commonly meant the concentration at which inhibition is half-maximal.

Sequence of LRRK2 recombinant protein (Q5S007 whole entry): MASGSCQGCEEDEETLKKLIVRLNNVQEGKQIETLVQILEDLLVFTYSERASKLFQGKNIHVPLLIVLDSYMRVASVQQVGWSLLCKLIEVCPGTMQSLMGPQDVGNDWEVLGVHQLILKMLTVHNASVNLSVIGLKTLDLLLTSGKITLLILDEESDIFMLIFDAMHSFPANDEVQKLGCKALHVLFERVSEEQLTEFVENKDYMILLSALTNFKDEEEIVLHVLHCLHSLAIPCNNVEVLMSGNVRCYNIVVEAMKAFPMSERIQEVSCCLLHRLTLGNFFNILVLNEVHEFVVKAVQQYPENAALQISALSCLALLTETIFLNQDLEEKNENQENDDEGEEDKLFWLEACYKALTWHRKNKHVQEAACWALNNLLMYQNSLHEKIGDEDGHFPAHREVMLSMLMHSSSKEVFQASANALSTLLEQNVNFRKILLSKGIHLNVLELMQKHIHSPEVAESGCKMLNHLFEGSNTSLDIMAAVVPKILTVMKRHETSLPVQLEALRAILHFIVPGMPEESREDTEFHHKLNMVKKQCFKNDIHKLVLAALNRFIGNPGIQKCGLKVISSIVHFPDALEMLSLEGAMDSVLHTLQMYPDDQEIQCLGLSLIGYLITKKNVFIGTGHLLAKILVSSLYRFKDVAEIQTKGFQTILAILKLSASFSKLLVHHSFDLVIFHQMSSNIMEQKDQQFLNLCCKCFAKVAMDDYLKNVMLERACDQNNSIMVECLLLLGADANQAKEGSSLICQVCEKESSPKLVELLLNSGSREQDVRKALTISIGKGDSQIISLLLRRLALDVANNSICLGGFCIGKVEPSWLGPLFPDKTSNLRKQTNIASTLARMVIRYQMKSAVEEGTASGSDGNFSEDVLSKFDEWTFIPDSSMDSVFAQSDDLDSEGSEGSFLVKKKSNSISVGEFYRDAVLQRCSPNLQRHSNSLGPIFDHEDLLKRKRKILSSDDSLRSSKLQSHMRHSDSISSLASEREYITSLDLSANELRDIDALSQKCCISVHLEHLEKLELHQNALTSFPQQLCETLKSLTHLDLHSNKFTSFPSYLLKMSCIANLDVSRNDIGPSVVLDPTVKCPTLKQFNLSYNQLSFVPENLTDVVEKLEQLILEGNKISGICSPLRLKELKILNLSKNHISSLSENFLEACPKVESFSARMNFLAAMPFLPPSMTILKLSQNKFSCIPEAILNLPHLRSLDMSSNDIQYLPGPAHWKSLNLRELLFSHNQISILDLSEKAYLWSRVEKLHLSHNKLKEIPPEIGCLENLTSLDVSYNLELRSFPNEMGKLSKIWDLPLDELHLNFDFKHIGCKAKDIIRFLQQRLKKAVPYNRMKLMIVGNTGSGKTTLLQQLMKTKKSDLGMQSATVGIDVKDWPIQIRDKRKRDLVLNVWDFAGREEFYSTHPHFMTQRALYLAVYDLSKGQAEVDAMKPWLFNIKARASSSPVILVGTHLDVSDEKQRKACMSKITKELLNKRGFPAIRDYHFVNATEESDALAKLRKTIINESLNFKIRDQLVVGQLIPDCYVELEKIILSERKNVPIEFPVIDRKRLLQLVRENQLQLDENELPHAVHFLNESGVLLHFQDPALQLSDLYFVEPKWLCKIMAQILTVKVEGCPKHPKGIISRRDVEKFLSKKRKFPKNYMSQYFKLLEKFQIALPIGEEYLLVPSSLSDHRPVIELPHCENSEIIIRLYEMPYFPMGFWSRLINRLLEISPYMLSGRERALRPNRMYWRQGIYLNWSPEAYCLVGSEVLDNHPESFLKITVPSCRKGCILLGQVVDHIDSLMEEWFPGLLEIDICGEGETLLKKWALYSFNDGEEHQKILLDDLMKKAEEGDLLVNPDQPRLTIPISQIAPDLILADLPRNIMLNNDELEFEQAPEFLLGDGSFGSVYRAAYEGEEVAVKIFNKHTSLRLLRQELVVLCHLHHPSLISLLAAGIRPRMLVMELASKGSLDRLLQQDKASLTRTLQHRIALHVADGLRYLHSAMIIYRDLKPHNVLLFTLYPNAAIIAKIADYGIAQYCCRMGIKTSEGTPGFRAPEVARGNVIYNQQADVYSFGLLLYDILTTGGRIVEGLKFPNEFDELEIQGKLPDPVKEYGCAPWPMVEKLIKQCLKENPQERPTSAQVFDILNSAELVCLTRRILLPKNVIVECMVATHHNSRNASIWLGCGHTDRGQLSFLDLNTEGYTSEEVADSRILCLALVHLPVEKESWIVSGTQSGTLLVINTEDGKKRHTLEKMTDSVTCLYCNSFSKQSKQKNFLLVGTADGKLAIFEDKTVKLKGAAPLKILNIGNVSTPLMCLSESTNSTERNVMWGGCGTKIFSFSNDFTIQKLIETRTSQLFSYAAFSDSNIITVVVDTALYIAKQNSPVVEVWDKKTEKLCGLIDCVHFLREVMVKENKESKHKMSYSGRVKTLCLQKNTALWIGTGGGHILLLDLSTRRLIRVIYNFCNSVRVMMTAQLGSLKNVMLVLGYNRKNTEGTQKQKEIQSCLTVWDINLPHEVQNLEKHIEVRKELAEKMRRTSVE

The assay has as its target LRRK2 recombinant protein (Homo sapiens (Human), UniProt Q5S007). The assay can be described thus: radiometric protein kinase assay (33PanQinase Activity Assay) for LRRK2. As to conditions: ATP 0.3 μM, LRRK2 7.3 nM, substrate GSK3(14-27), 30° C. for 60 minutes. It counts as biochemical. On the procedure: The inhibition of LRRK2 kinase was assessed using LRRK2 recombinant protein in an in vitro peptide-based kinase assay.
A radiometric protein kinase assay (^33PanQinase® Activity Assay) is used for measuring the kinase activity. All assays are performed in 96-well FlashPlates™ from Perkin Elmer in a 50 μl reaction volume. The reaction cocktail is pipetted in 4 steps in the following order: • 10 μl of non-radioactive ATP solution (in H2O) • 25 μl of assay buffer/[γ-^33P]-ATP mixture • 5 μl of test sample in 10% DMSO • 10 μl of enzyme/substrate mixture
The assay for LRRK2 contains 70 mM HEPES-NaOH pH 7.5, 3 mM MgCl2, 3 mM MnCl2, 3 μM Na-orthovanadate, 1.2 mM DTT, 50 μg/ml PEG20000, ATP (0.3 μM), [γ-^33P]-ATP (approx. […] per well), protein kinase LRRK2 (7.3 nM) and substrate (GSK3(14-27), 1.0 μg/50 μl).
The kinase is obtained from Invitrogen Corporation.
The reaction cocktails were incubated at 30° C. for 60 minutes. The reaction was stopped with 50 μl of 2% (v/v) H3PO4, plates were aspirated and washed two times with 200 μl 0.9% (w/v) NaCl. Incorporation of ^33Pi (counting of “cpm”) was determined with a microplate scintillation counter.
The compounds are dissolved to 10 mM in DMSO. Where needed, solutions are sonicated in a bath sonicator.
Table 2 provides the pIC50 values of the compounds according to the invention, obtained using the above mentioned kinase assay.
Take `c1cc2cc(c1)-c1cnn3ccc(nc13)NCCN1CCC[C@H]1CO2` [Example N1]: the concentration for half-maximal inhibition (IC50) is below 100 nM.
Under `Fc1ccc2cc1-c1cnn3ccc(nc13)NCCN1CCC[C@H]1CN2` [Example N2] stands below 100 nM; under `Fc1ccc2cc1-c1cnn3ccc(nc13)NC1CCN(CCN2)CC1` [Example N3], below 100 nM; under `Fc1ccc2cc1-c1cnn3ccc(nc13)NCCN1CCC(CC1)N2` [Example N4], below 100 nM.
Consider `Fc1ccc2cc1-c1cnn3ccc(nc13)NCCC1CCCN1CCN2` (stereo not drawn) [Example N5], for which the concentration for half-maximal inhibition (IC50) was below 100 nM.
The figure for `Fc1ccc2cc1-c1cnn3ccc(nc13)NC1CCN(CCCN2)C1` (stereo not drawn) [Example N6] is below 100 nM.
The figure for `Fc1ccc2cc1-c1cnn3ccc(nc13)OCCN1CCC(CC1)N2` [Example N7] is below 100 nM.
For the compound `Fc1ccc2cc1-c1cnn3ccc(nc13)NCCN1CCC[C@H]1CO2` [Example N8], the IC50 is below 100 nM.
The figure for `Fc1ccc2cc1-c1cnn3ccc(nc13)OC1CCN(CCN2)CC1` [Example N9] is 100 to 1000 nM; for `Cc1cc(F)c2cc1NC[C@@H]1CCCN1CCNc1ccn3ncc-2c3n1` [Example N10] it is below 100 nM.
The figure for `CN1CCN2CCC[C@H]2COc2ccc(F)c(c2)-c2cnn3ccc1nc23` [Example N11] is below 100 nM; for `Fc1ccc2cc1-c1cnn3ccc(nc13)NCCN1C[C@H](F)C[C@H]1CO2` [Example N12] it is below 100 nM.
Turning to `Fc1ccc2cc1-c1cnn3ccc(nc13)OCCCN1CCC[C@H]1CN2` [Example N13], the IC50 is 100 to 1000 nM.
For the compound `Fc1ccc2cc1-c1cnn3ccc(nc13)NCCCN1CCC[C@H]1CO2` [Example N14], the IC50 is below 100 nM.
In the case of `CN1c2ccn3ncc(c3n2)-c2cc(ccc2F)OCCN2CCC1CC2` [Example N15], the 50% inhibitory concentration (IC50) is below 100 nM.
Under `CN1CCN2CCC[C@H]2CNc2ccc(F)c(c2)-c2cnn3ccc1nc23` [Example N16] stands below 100 nM; under `Fc1ccc2cc1-c1cnn3ccc(nc13)NCCN1CCCC[C@H]1CO2` [Example N17], below 100 nM; under `Fc1ccc2cc1-c1cnn3ccc(nc13)NCCN1CCCC[C@H](C1)O2` [Example N18], below 100 nM.
Under `CN1CCN2CCCC[C@H]2COc2ccc(F)c(c2)-c2cnn3ccc1nc23` [Example N19] stands below 100 nM.
The figure for `Fc1ccc2cc1-c1cnn3ccc(nc13)NCCN1CCNC[C@H]1CO2` [Example N20] is below 100 nM.
In the case of `Fc1ccc2cc1-c1cnn3ccc(nc13)OCCN1CCC[C@H]1CN2` [Example N21], the IC50 was below 100 nM.
With `Fc1ccc2cc1-c1cnn3ccc(nc13)NCCN1CCOC[C@H]1CO2` [Example N22], the IC50 was below 100 nM.
Regarding `CN1CCN2CCNc3ccn4ncc(c4n3)-c3cc(ccc3F)OC[C@@H]2C1` [Example N23], the half-inhibitory concentration (IC50) is below 100 nM.
Under `CN1CCN2CCN(C)c3ccn4ncc(c4n3)-c3cc(ccc3F)OC[C@@H]2C1` [Example N24] stands below 100 nM.
Under `CN1CCN2CCOC[C@H]2COc2ccc(F)c(c2)-c2cnn3ccc1nc23` [Example N25] stands below 100 nM; under `Fc1cc(Cl)c2cc1-c1cnn3ccc(nc13)NCCN1CCC[C@H]1CO2` [Example N26], below 100 nM.
Under `Fc1ccc2cc1-c1cnn3ccc(nc13)NCCN1C[C@H]3CCCN3C[C@H]1CO2` [Example N27] stands below 100 nM; under `Fc1ccc2cc1-c1cnn3ccc(nc13)NCCN1CCNC[C@H](C1)O2` [Example N28], below 100 nM; under `CN1CCN2C[C@H]3CCCN3C[C@H]2COc2ccc(F)c(c2)-c2cnn3ccc1nc23` [Example N29], below 100 nM.
As for `Fc1ccc2cc1-c1cnn3ccc(nc13)NCCN1C[C@H]3CCCN3C[C@@H]1CO2` [Example N30], the half-inhibitory concentration (IC50) was below 100 nM.
In the case of `CN1CCN2C[C@H](CN3CCC[C@H]3C2)Oc2ccc(F)c(c2)-c2cnn3ccc1nc23` [Example N31], the half-inhibitory concentration (IC50) was below 100 nM.
Regarding `CC(=O)N1CCN2CCNc3ccn4ncc(c4n3)-c3cc(ccc3F)OC[C@@H]2C1` [Example N32], the half-maximal inhibitory concentration (IC50) is below 100 nM.
Under `Fc1ccc2cc1-c1cnn3ccc(nc13)NCCN1CCC(CC1)O2` [Example N33] stands below 100 nM; under `CN1CCN2CCC(CC2)Oc2ccc(F)c(c2)-c2cnn3ccc1nc23` [Example N34], below 100 nM.
The figure for `Fc1ccc2cc1-c1cnn3ccc(nc13)NCCN1CCNC[C@@H]1CO2` [Example N35] is below 100 nM; for `CN1CCN2CCNc3ccn4ncc(c4n3)-c3cc(ccc3F)OC[C@H]2C1` [Example N36] it is below 100 nM; for `Fc1ccc2cc1-c1cnn3ccc(nc13)CCCN1CCC[C@H]1CO2` [Example N37] it is below 100 nM.
For the compound `Fc1ccc2cc1-c1cnn3ccc(nc13)NCCN1C[C@@H]3CCCN3C[C@H]1CO2` [Example N38], the IC50 is below 100 nM.
Consider `Fc1ccc2cc1-c1cnn3ccc(nc13)NCCN1C[C@@H](F)C[C@H]1CO2` [Example N39], for which the IC50 lay in the range of 100 to 1000 nM.
The figure for `C[C@H]1C[C@@H]2CCN1CCNc1ccn3ncc(c3n1)-c1cc(ccc1F)O2` [Example N40] is below 100 nM; for `Fc1ccc2cc1-c1cnn3ccc(nc13)NCCN1CCC=C[C@H]1CO2` [Example N41] it is below 100 nM.
Turning to `CN1CCN2C[C@@H]3CCCN3C[C@H]2COc2ccc(F)c(c2)-c2cnn3ccc1nc23` [Example N42], the IC50 is below 100 nM.
As for `Fc1ccc2cc1-c1cnn3ccc(nc13)NCCN1C[C@@H](CN3CCC[C@H]3C1)O2` [Example N43], the half-maximal inhibitory concentration (IC50) is below 100 nM.
The figure for `CN1CCN2C[C@@H](CN3CCC[C@H]3C2)Oc2ccc(F)c(c2)-c2cnn3ccc1nc23` [Example N44] is below 100 nM.
The figure for `C[C@@H]1CN2CCNc3ccn4ncc(c4n3)-c3cc(ccc3F)OC[C@@H]2CN1` [Example N45] is below 100 nM; for `C[C@@H]1CN2CCNc3ccn4ncc(c4n3)-c3cc(ccc3F)OC[C@@H]2CN1C` [Example N46] it is below 100 nM; for `C[C@@H]1CN2CCNc3ccn4ncc(c4n3)-c3cc(ccc3F)OC[C@@H]2CN1C1CC1` [Example N47] it is below 100 nM.
Consider `CCCN1C[C@H]2COc3ccc(F)c(c3)-c3cnn4ccc(nc34)NCCN2C[C@H]1C` [Example N48], for which the half-maximal inhibitory concentration (IC50) is below 100 nM.
Turning to `C[C@@H]1CN2CCNc3ccn4ncc(c4n3)-c3cc(ccc3F)OC[C@@H]2CN1CC1CC1` [Example N49], the IC50 was below 100 nM.
The figure for `CCN1C[C@H]2COc3ccc(F)c(c3)-c3cnn4ccc(nc34)NCCN2C[C@H]1C` [Example N50] is below 100 nM.
The figure for `CC(C)[C@H]1CN2CCNc3ccn4ncc(c4n3)-c3cc(ccc3F)O[C@H](CN1)C2` [Example N51] is below 100 nM; for `Fc1ccc2cc1-c1cnc3ccc(nn13)NCCN1CCC[C@H]1CO2` [Example N52] it is below 100 nM; for `C[C@H]1CN2CCNc3ccn4ncc(c4n3)-c3cc(ccc3F)OC[C@@H]2CN1` [Example N53] it is below 100 nM.
Under `C[C@H]1CN2CCNc3ccn4ncc(c4n3)-c3cc(ccc3F)O[C@H](CN1)C2` [Example N54] stands below 100 nM; under `CC1(C)CN2CCNc3ccn4ncc(c4n3)-c3cc(ccc3F)OC[C@@H]2CN1` [Example N55], below 100 nM.
`CC(C)[C@H]1CN2CCN(C)c3ccn4ncc(c4n3)-c3cc(ccc3F)OC[C@@H]2CN1` [Example N56]: the half-maximal inhibitory concentration (IC50) was in the range of 100 to 1000 nM.
Under `Fc1ccc2cc1-c1cnn3ccc(nc13)N[C@H]1CCCN(CCO2)C1` [Example N57] stands below 100 nM; under `CC1(C)CN2CCNc3ccn4ncc(c4n3)-c3cc(ccc3F)O[C@H](CN1)C2` [Example N58], below 100 nM; under `Fc1ccc2cc1-c1cnc3ccc(nn13)NCCN1CCCC[C@H](C1)O2` [Example N59], below 100 nM.
Under `Fc1ccc2cc1-c1cnn3ccc(nc13)N[C@@H]1CCN(CCO2)C1` [Example N60] stands below 100 nM; under `CN1c2ccn3ncc(c3n2)-c2cc(ccc2F)OCCN2CC[C@@H]1C2` [Example N61], below 100 nM; under `CC1(C)CN2CCNc3ccn4ncc(c4n3)-c3cc(ccc3F)OC[C@@H]2CN1C1CC1` [Example N62], below 100 nM.
On to `C=CCN1C[C@H]2COc3ccc(F)c(c3)-c3cnn4ccc(nc34)NCCN2CC1(C)C` [Example N63], for which the IC50 is below 100 nM.

Source of the values: patent publication US10377772B2, “Macrocyclic LRRK2 kinase inhibitors” (Oncodesign S.A., priority 2014, dated 2019).
